A short description of this series: Potentiometric titration of dispersion pKa of couplers as aqueous dispersions. The format is physicochemical. To be noted: 0.50M potassium counter ion. An excerpt: Preferred two-equivalent magenta dye-forming couplers for the practice of this invention include those that have pKa values of less than 10.0 when dispersed together with a coupler solvent. Potentiometric titrations were used to measure pKa values for some of the preferred couplers of the invention as aqueous dispersions. In these two-phase mixtures, the term pKa denotes the aqueous buffer pH at which half of the coupler in the oil phase is ionized or ion paired. Table I lists dispersion pKa values measured with 0.50M potassium counter ion.

The mark [1] stands for this setting: coupler solvent S2, coupler:solvent 1:2, aqueous dispersion.
[2] abbreviates: coupler solvent C5, coupler:solvent 1:1, aqueous dispersion.
[3] abbreviates: coupler solvent S1, coupler:solvent 1:1, aqueous dispersion.

Take `CCCCCCCCCCCCCCCC(=O)Nc1ccc(Cl)c(NC2=NN(c3c(Cl)c(Cl)c(Cl)c(Cl)c3Cl)C(=O)C2Sc2ccccc2NC(=O)OCc2ccccc2)c1` (stereo not drawn) [M7]: the “pKa (0.5M K+)” value under setting [1] is 7.5.

As to `CCCCCCCCCCCCCC(=O)Nc1ccc(Cl)c(NC2=NN(c3c(Cl)cc(Cl)cc3Cl)C(=O)C2Sc2ccccc2NC(=O)C(CC)Oc2ccc(C(C)(C)CC)cc2C(C)(C)CC)c1` (stereo not drawn) [M3], the “pKa (0.5M K+)” value is, setting by setting: under setting [2], 8.2; under setting [3], 7.9.

As to `CCCCCCCCCCCCNS(=O)(=O)c1ccc(NC2=NN(c3c(Cl)cc(Cl)cc3Cl)C(=O)C2Sc2ccccc2NC(=O)CCCCCCCCCCC)c(Cl)c1` (stereo not drawn) [M8], the “pKa (0.5M K+)” value under setting [1] amounted to 7.9.

`CCCCCCCCCCCCNS(=O)(=O)c1ccc(NC2=NN(c3c(Cl)cc(Cl)cc3Cl)C(=O)C2Sc2ccccc2NC(=O)C(CC)Oc2ccc(C(C)(C)CC)cc2C(C)(C)CC)c(Cl)c1` (stereo not drawn) [M4]: the “pKa (0.5M K+)” value under setting [2] is given as 8.0 and the “pKa (0.5M K+)” value under setting [3] was 7.6.

As to `CCCCCCCCCCCCCCCCCCNS(=O)(=O)c1ccc(Cl)c(NC2=NN(c3c(Cl)cc(Cl)cc3Cl)C(=O)C2Sc2cc(C(C)C)ccc2C(C)C)c1` (stereo not drawn) [M20], the “pKa (0.5M K+)” value reads like this: (coupler solvent C1, coupler:solvent 1:2, aqueous dispersion) 8.9; under setting [1], 8.4.

Take `CCCCCCCCCCCCNS(=O)(=O)c1ccc(NC2=NN(c3c(Cl)cc(Cl)cc3Cl)C(=O)C2Sc2cc(C(C)(C)CC(C)(C)C)ccc2OCCCC)c(Cl)c1` (stereo not drawn) [M1]: the “pKa (0.5M K+)” value under setting [1] is 8.5.

(Values after patent US5462848A, “Color photographic materials including magenta coupler, inhibitor-releasing coupler and carbonamide compound, and methods” (Eastman Kodak Company, priority 1993, dated 1995).)
